Results reported in ChEMBL document CHEMBL3885861, “Open TG-GATES”.

Species: Rattus norvegicus
Test: Open TG-GATES - Regimen: Daily Repeat
Assay type: toxicity, organism-based, Sprague-Dawley
Set-up: regimen Daily Repeat, gender Male, age 6 weeks
Settings: in vivo, po, route gavage; for APTT / Bas / Eos / Fbg / Hb / Ht / Lym / MCH / MCHC / MCV / Mono / Neu / PT / Plat / RBC / Ret / WBC: tissue Blood; for A/G / ALP / ALT / AST / BUN / CRE / Ca / Cl / DBIL / GLC / IP / K / LDH / Na / PL / RALB / TBIL / TC / TG / TP / gamma-GTP: tissue Plasma
[1] = 30 mg/kg, 72 h, dose level Middle, time 3 day
[2] = 30 mg/kg, […], dose level Middle, time 7 day
[3] = 30 mg/kg, […], dose level Middle, time 14 day
[4] = 30 mg/kg, […], dose level Middle, time 28 day
[5] = 100 mg/kg, 72 h, dose level High, time 3 day
[6] = 100 mg/kg, […], dose level High, time 7 day
[7] = 100 mg/kg, […], dose level High, time 14 day
[8] = 100 mg/kg, […], dose level High, time 28 day

Structure (SMILES): Cn1cc[nH]c1=S [METHIMAZOLE]
- TERMINAL_BW [1]: 217 g
- APTT [1]: 20.8 s
- Bas [1]: 0%
- Eos [1]: 1%
- Fbg [1]: 340.6 mg/dL
- Hb [1]: 14 g/dL
- Ht [1]: 39.7%
- Lym [1]: 84%
- MCH [1]: 21.6 pg
- MCHC [1]: 35.2%
- MCV [1]: 61.2 fL
- Mono [1]: 2%
- Neu [1]: 12.8%
- PT [1]: 16.5 s
- Plat [1]: 131.6 x10_4/uL
- RBC [1]: 648.8 x10_4/ul
- Ret [1]: 5.4%
- WBC [1]: 83.8 x10_2/uL
- A/G [1]: 1.2
- ALP [1]: 1643.6 IU/L
- ALT [1]: 41.2 IU/L
- AST [1]: 61 IU/L
- BUN [1]: 14.6 mg/dL
- CRE [1]: 0.1 mg/dL
- Ca [1]: 11 mg/dL
- Cl [1]: 107 meq/L
- DBIL [1]: 0.002 mg/dL
- GLC [1]: 178.4 mg/dL
- IP [1]: 6.6 mg/dL
- K [1]: 4.4 meq/L
- LDH [1]: 260.2 IU/L
- Na [1]: 142.4 meq/L
- PL [1]: 173 mg/dL
- RALB [1]: 3.3 g/dL
- TBIL [1]: 0.012 mg/dL
- TC [1]: 94 mg/dL
- TG [1]: 132.8 mg/dL
- TP [1]: 5.9 g/dL
- gamma-GTP [1]: 1.2 IU/L
- TERMINAL_BW [2]: 231.6 g
- TERMINAL_BW [3]: 256 g
- TERMINAL_BW [4]: 282.7 g
- APTT [2]: 20.9 s
- Bas [2]: 0%
- Eos [2]: 1%
- Fbg [2]: 335.6 mg/dL
- Hb [2]: 15.1 g/dL
- Ht [2]: 41.3%
- Lym [2]: 83.6%
- MCH [2]: 22.3 pg
- MCHC [2]: 36.7%
- MCV [2]: 60.7 fL
- Mono [2]: 2%
- Neu [2]: 12.8%
- PT [2]: 16.9 s
- Plat [2]: 122.3 x10_4/uL
- RBC [2]: 680 x10_4/ul
- Ret [2]: 3.7%
- WBC [2]: 90.9 x10_2/uL
- APTT [3]: 21.6 s
- Bas [3]: 0%
- Eos [3]: 0.2%
- Fbg [3]: 295 mg/dL
- Hb [3]: 14.6 g/dL
- Ht [3]: 41.6%
- Lym [3]: 89%
- MCH [3]: 20.2 pg
- MCHC [3]: 35%
- MCV [3]: 57.6 fL
- Mono [3]: 1%
- Neu [3]: 8.4%
- PT [3]: 17.5 s
- Plat [3]: 109.2 x10_4/uL
- RBC [3]: 721.2 x10_4/ul
- Ret [3]: 1.6%
- WBC [3]: 89.2 x10_2/uL
- APTT [4]: 21.4 s
- Bas [4]: 0%
- Eos [4]: 0.8%
- Fbg [4]: 290.6 mg/dL
- Hb [4]: 15.4 g/dL
- Ht [4]: 42.4%
- Lym [4]: 84.4%
- MCH [4]: 19.3 pg
- MCHC [4]: 36.2%
- MCV [4]: 53.3 fL
- Mono [4]: 2%
- Neu [4]: 12.2%
- PT [4]: 17.4 s
- Plat [4]: 90.1 x10_4/uL
- RBC [4]: 796 x10_4/ul
- Ret [4]: 1%
- WBC [4]: 91.7 x10_2/uL
- A/G [2]: 1.1
- ALP [2]: 1563.2 IU/L
- ALT [2]: 34.4 IU/L
- AST [2]: 57 IU/L
- BUN [2]: 17.2 mg/dL
- CRE [2]: 0.2 mg/dL
- Ca [2]: 10.7 mg/dL
- Cl [2]: 108 meq/L
- DBIL [2]: 0.002 mg/dL
- GLC [2]: 166.8 mg/dL
- IP [2]: 6.7 mg/dL
- K [2]: 4.2 meq/L
- LDH [2]: 248.8 IU/L
- Na [2]: 141.8 meq/L
- PL [2]: 169.4 mg/dL
- RALB [2]: 3.2 g/dL
- TBIL [2]: 0.002 mg/dL
- TC [2]: 97 mg/dL
- TG [2]: 105 mg/dL
- TP [2]: 6.3 g/dL
- gamma-GTP [2]: 1 IU/L
- A/G [3]: 1.1
- ALP [3]: 1519.4 IU/L
- ALT [3]: 31.2 IU/L
- AST [3]: 48 IU/L
- BUN [3]: 22.2 mg/dL
- CRE [3]: 0.2 mg/dL
- Ca [3]: 10.8 mg/dL
- Cl [3]: 106.4 meq/L
- DBIL [3]: 0.002 mg/dL
- GLC [3]: 175.6 mg/dL
- IP [3]: 6.2 mg/dL
- K [3]: 3.8 meq/L
- LDH [3]: 190.4 IU/L
- Na [3]: 142.6 meq/L
- PL [3]: 169 mg/dL
- RALB [3]: 3.4 g/dL
- TBIL [3]: 0.018 mg/dL
- TC [3]: 105 mg/dL
- TG [3]: 79.6 mg/dL
- TP [3]: 6.7 g/dL
- gamma-GTP [3]: 1 IU/L
- A/G [4]: 1
- ALP [4]: 839.6 IU/L
- ALT [4]: 34 IU/L
- AST [4]: 44 IU/L
- BUN [4]: 21.2 mg/dL
- CRE [4]: 0.3 mg/dL
- Ca [4]: 10.4 mg/dL
- Cl [4]: 106.2 meq/L
- DBIL [4]: 0.006 mg/dL
- GLC [4]: 169.8 mg/dL
- IP [4]: 5.3 mg/dL
- K [4]: 3.9 meq/L
- LDH [4]: 154.8 IU/L
- Na [4]: 142.2 meq/L
- PL [4]: 159.6 mg/dL
- RALB [4]: 3.5 g/dL
- TBIL [4]: 0.014 mg/dL
- TC [4]: 103.2 mg/dL
- TG [4]: 53.8 mg/dL
- TP [4]: 6.9 g/dL
- gamma-GTP [4]: 2 IU/L
- TERMINAL_BW [5]: 196.1 g
- APTT [5]: 20.2 s
- Bas [5]: 0%
- Eos [5]: 1%
- Fbg [5]: 316.5 mg/dL
- Hb [5]: 14.8 g/dL
- Ht [5]: 41.3%
- Lym [5]: 81.4%
- MCH [5]: 21.8 pg
- MCHC [5]: 35.9%
- MCV [5]: 60.6 fL
- Mono [5]: 2.2%
- Neu [5]: 14.6%
- PT [5]: 15.9 s
- Plat [5]: 118.8 x10_4/uL
- RBC [5]: 682.8 x10_4/ul
- Ret [5]: 3.7%
- WBC [5]: 59.4 x10_2/uL
- A/G [5]: 1.2
- ALP [5]: 1390.6 IU/L
- ALT [5]: 34.8 IU/L
- AST [5]: 42.2 IU/L
- BUN [5]: 16.6 mg/dL
- CRE [5]: 0.1 mg/dL
- Ca [5]: 10.8 mg/dL
- Cl [5]: 108.2 meq/L
- DBIL [5]: 0.004 mg/dL
- GLC [5]: 162 mg/dL
- IP [5]: 7.1 mg/dL
- K [5]: 3.9 meq/L
- LDH [5]: 258.6 IU/L
- Na [5]: 141.8 meq/L
- PL [5]: 180.8 mg/dL
- RALB [5]: 3.2 g/dL
- TBIL [5]: 0.028 mg/dL
- TC [5]: 103 mg/dL
- TG [5]: 62.2 mg/dL
- TP [5]: 5.9 g/dL
- gamma-GTP [5]: 1 IU/L
- TERMINAL_BW [6]: 231.6 g
- TERMINAL_BW [7]: 234.9 g
- TERMINAL_BW [8]: 244.7 g
- APTT [6]: 20.6 s
- Bas [6]: 0%
- Eos [6]: 1%
- Fbg [6]: 347.6 mg/dL
- Hb [6]: 14.7 g/dL
- Ht [6]: 40.3%
- Lym [6]: 86.8%
- MCH [6]: 21.7 pg
- MCHC [6]: 36.4%
- MCV [6]: 59.6 fL
- Mono [6]: 2.2%
- Neu [6]: 8.4%
- PT [6]: 17.9 s
- Plat [6]: 132.4 x10_4/uL
- RBC [6]: 677 x10_4/ul
- Ret [6]: 2.3%
- WBC [6]: 73.6 x10_2/uL
- APTT [7]: 20.8 s
- Bas [7]: 0%
- Eos [7]: 0.4%
- Fbg [7]: 430.8 mg/dL
- Hb [7]: 14.5 g/dL
- Ht [7]: 40.9%
- Lym [7]: 80.4%
- MCH [7]: 20.4 pg
- MCHC [7]: 35.4%
- MCV [7]: 57.7 fL
- Mono [7]: 2.6%
- Neu [7]: 15%
- PT [7]: 18.1 s
- Plat [7]: 100.4 x10_4/uL
- RBC [7]: 708.8 x10_4/ul
- Ret [7]: 1.4%
- WBC [7]: 65 x10_2/uL
- APTT [8]: 19.9 s
- Bas [8]: 0%
- Eos [8]: 0.2%
- Fbg [8]: 298.4 mg/dL
- Hb [8]: 14.9 g/dL
- Ht [8]: 40.7%
- Lym [8]: 87.4%
- MCH [8]: 19.6 pg
- MCHC [8]: 36.7%
- MCV [8]: 53.4 fL
- Mono [8]: 1.8%
- Neu [8]: 9.4%
- PT [8]: 18.1 s
- Plat [8]: 77.6 x10_4/uL
- RBC [8]: 761.4 x10_4/ul
- Ret [8]: 0.7%
- WBC [8]: 79.7 x10_2/uL
- A/G [6]: 1.1
- ALP [6]: 1556.6 IU/L
- ALT [6]: 30.2 IU/L
- AST [6]: 32.4 IU/L
- BUN [6]: 18 mg/dL
- CRE [6]: 0.2 mg/dL
- Ca [6]: 11.1 mg/dL
- Cl [6]: 107.2 meq/L
- DBIL [6]: 0.004 mg/dL
- GLC [6]: 161.4 mg/dL
- IP [6]: 7 mg/dL
- K [6]: 4.1 meq/L
- LDH [6]: 221.8 IU/L
- Na [6]: 141.4 meq/L
- PL [6]: 203.2 mg/dL
- RALB [6]: 3.5 g/dL
- TBIL [6]: 0.01 mg/dL
- TC [6]: 120 mg/dL
- TG [6]: 89.4 mg/dL
- TP [6]: 6.7 g/dL
- gamma-GTP [6]: 1.8 IU/L
- A/G [7]: 1
- ALP [7]: 984.4 IU/L
- ALT [7]: 30.8 IU/L
- AST [7]: 26.6 IU/L
- BUN [7]: 21.6 mg/dL
- CRE [7]: 0.3 mg/dL
- Ca [7]: 11.1 mg/dL
- Cl [7]: 106.4 meq/L
- DBIL [7]: 0.006 mg/dL
- GLC [7]: 164.8 mg/dL
- IP [7]: 6.3 mg/dL
- K [7]: 4 meq/L
- LDH [7]: 182.6 IU/L
- Na [7]: 142.6 meq/L
- PL [7]: 201.4 mg/dL
- RALB [7]: 3.6 g/dL
- TBIL [7]: 0.034 mg/dL
- TC [7]: 140.2 mg/dL
- TG [7]: 44.4 mg/dL
- TP [7]: 7.2 g/dL
- gamma-GTP [7]: 2 IU/L
- A/G [8]: 1.1
- ALP [8]: 910 IU/L
- ALT [8]: 33.4 IU/L
- AST [8]: 25.8 IU/L
- BUN [8]: 24.8 mg/dL
- CRE [8]: 0.3 mg/dL
- Ca [8]: 10.8 mg/dL
- Cl [8]: 105.6 meq/L
- DBIL [8]: 0.028 mg/dL
- GLC [8]: 166.6 mg/dL
- IP [8]: 5.6 mg/dL
- K [8]: 3.5 meq/L
- LDH [8]: 151.2 IU/L
- Na [8]: 143.8 meq/L
- PL [8]: 167.6 mg/dL
- RALB [8]: 3.7 g/dL
- TBIL [8]: 0.048 mg/dL
- TC [8]: 110 mg/dL
- TG [8]: 42 mg/dL
- TP [8]: 7.2 g/dL
- gamma-GTP [8]: 2.6 IU/L
